The values below come from ChEMBL document CHEMBL5321256, “Tolypocaibols: Antibacterial Lipopeptaibols from a Tolypocladium sp. Endophyte of the Marine Macroalga Spongomorpha arcta” (2023).

In brackets after ≈: the same amount, converted by molar mass. Square brackets hold non-standard residues; d marks the D form. Peptide text beside a SMILES is read from it. * marks the point of attachment. Pro(4S-Me) = C[C@@H]1CN[C@H](C(=O)O)C1; Decanoyl = CCCCCCCCCC(=O)*; Valol = CC(C)[C@@H](CO)N*; Aib = CC(C)(N)C(=O)O

What all share (format): functional
In one experiment the test system is Brucella anthropi. The experiment can be described thus: Antibacterial activity against Ochrobactrum anthropi measured after 18 to 20 hrs by broth microdilution method. The conditions noted are these: time 18-20 hrs. (In general: In broth dilution the organism is exposed to a series of concentrations in liquid medium.)
The test system of another experiment is Bacillus subtilis. The experiment can be described thus: Antibacterial activity against Bacillus subtilis measured after 18 to 20 hrs by broth microdilution method. The conditions noted are these: time 18-20 hrs.
Experiment [1] concerns Staphylococcus aureus. The experiment can be described thus: Antibacterial activity against methicillin-resistant Staphylococcus aureus measured after 18 to 20 hrs by broth microdilution method. Conditions: time 18-20 hrs.
In a further experiment the test system is Enterococcus faecalis. The experiment can be described thus: Antibacterial activity against Enterococcus faecalis measured after 18 to 20 hrs by broth microdilution method. The conditions noted are these: time 18-20 hrs.
The subject of a further experiment is Salmonella enterica. Kind of experiment: Antibacterial activity against Salmonella enterica measured after 18 to 20 hrs by broth microdilution method. The conditions noted are these: time 18-20 hrs.
Another experiment deals with Enterococcus faecium. The experiment can be described thus: Antibacterial activity against Enterococcus faecium measured after 18 to 20 hrs by broth microdilution method. Conditions: time 18-20 hrs.
In another experiment the test system is Listeria ivanovii. The experiment can be described thus: Antibacterial activity against Listeria ivanovii ATCC BAA-139 measured after 18 to 20 hrs by broth microdilution method. Conditions: time 18-20 hrs.
The subject of another experiment is Klebsiella pneumoniae. The experiment can be described thus: Antibacterial activity against Klebsiella pneumoniae measured after 18 to 20 hrs by broth microdilution method. The conditions noted are these: time 18-20 hrs.
Experiment [2] deals with Mycobacterium tuberculosis. Kind of experiment: Antibacterial activity against Mycobacterium tuberculosis ATCC 25177 by resazurin microplate assay. Background: Alamar Blue is a resazurin reagent that responds to reducing activity.
Experiment [3] concerns Staphylococcus epidermidis. Kind of experiment: Antibacterial activity against Staphylococcus epidermidis measured after 18 to 20 hrs by broth microdilution method. The conditions noted are these: time 18-20 hrs.
The test system of experiment [4] is Mycolicibacterium smegmatis. Kind of experiment: Antibacterial activity against Mycobacterium smegmatis ATCC 70084 by resazurin microplate assay.
The subject of experiment [5] is Yersinia pseudotuberculosis. The experiment can be described thus: Antibacterial activity against Yersinia pseudotuberculosis measured after 18 to 20 hrs by broth microdilution method. Conditions: time 18-20 hrs.
For the next experiment, the system named is Vibrio cholerae. The experiment can be described thus: Antibacterial activity against Vibrio cholerae measured after 18 to 20 hrs by broth microdilution method. Conditions: time 18-20 hrs.
The test system of a further experiment is Pseudomonas aeruginosa. Kind of experiment: Antibacterial activity against Pseudomonas aeruginosa measured after 18 to 20 hrs by broth microdilution method. The conditions noted are these: time 18-20 hrs.
For a further experiment, the system named is Escherichia coli. The experiment can be described thus: Antibacterial activity against Escherichia coli measured after 18 to 20 hrs by broth microdilution method. The conditions noted are these: time 18-20 hrs.
Experiment [6] deals with Providencia alcalifaciens. The experiment can be described thus: Antibacterial activity against Providencia alcalifaciens measured after 18 to 20 hrs by broth microdilution method. Conditions: time 18-20 hrs.
The test system of a further experiment is Klebsiella aerogenes. The experiment can be described thus: Antibacterial activity against Klebsiella aerogenes measured after 18 to 20 hrs by broth microdilution method. Conditions: time 18-20 hrs.
The subject of a further experiment is Shigella sonnei. The experiment can be described thus: Antibacterial activity against Shigella sonnei measured after 18 to 20 hrs by broth microdilution method. Conditions: time 18-20 hrs.
The test system of experiment [7] is Staphylococcus aureus. Kind of experiment: Antibacterial activity against methicillin-susceptible Staphylococcus aureus measured after 18 to 20 hrs by broth microdilution method. The conditions noted are these: time 18-20 hrs.

On to `CCCCCCCCCC(=O)NC(C)(C)C(=O)N1C[C@@H](C)C[C@H]1C(=O)N[C@@H](Cc1ccccc1)C(=O)NC(C)(C)C(=O)N[C@@H](CCC(N)=O)C(=O)N[C@@H](CCC(N)=O)C(=O)NC(C)(C)C(=O)NC(C)(C)C(=O)N[C@@H](CCC(N)=O)C(=O)N[C@@H](CC(C)C)C(=O)N[C@H](CO)C(C)C` (Decanoyl-[Aib][Pro(4S-Me)]F[Aib]QQ[Aib][Aib]QL-Valol), for which the MIC (usually the lowest concentration that inhibits growth of the organism) was greater than 128 µM in the experiment on Brucella anthropi; 4 µM (≈ 5.41 µg/mL) against Bacillus subtilis; 16 µM (≈ 21.7 µg/mL) in the experiment with Staphylococcus aureus [1]; 16 µM (≈ 21.7 µg/mL) in the experiment on Enterococcus faecalis; greater than 128 µM in the experiment with Salmonella enterica; 16 µM (≈ 21.7 µg/mL) against Enterococcus faecium. The MIC is 8 µM (≈ 10.8 µg/mL) in the experiment on Listeria ivanovii; greater than 128 µM with Klebsiella pneumoniae; 40 µM (≈ 54.1 µg/mL) in [2]; greater than 128 µM in experiment [3]; 80 µM (≈ 108 µg/mL) in [4]; greater than 128 µM in experiment [5]. Further, the MIC (against Vibrio cholerae; in the experiment on Pseudomonas aeruginosa; in the experiment on Escherichia coli; in experiment [6]; in the experiment on Klebsiella aerogenes; against Shigella sonnei) was greater than 128 µM throughout. In the experiment with Staphylococcus aureus [7], this compound yielded an MIC of 4 µM (≈ 5.41 µg/mL).

For the compound `C=C[C@@H]1C[C@H](C)C[C@H](C)[C@H]1c1c(O)ccn(O[C@@H]2C(C(=O)OC)=C[C@@H](O)[C@@H](O)[C@H]2O)c1=O`, the MIC in the experiment with Brucella anthropi, against Bacillus subtilis, against Staphylococcus aureus [1], in the experiment on Enterococcus faecalis, in the experiment on Salmonella enterica and in the experiment with Enterococcus faecium was 128 µM (≈ 57.5 µg/mL) throughout. For the same compound, the MIC in the experiment on Listeria ivanovii is 16 µM (≈ 7.19 µg/mL); with Klebsiella pneumoniae, greater than 128 µM; in [2], 250 µM (≈ 112 µg/mL); in experiment [3] it was 128 µM (≈ 57.5 µg/mL); in experiment [4], greater than 250 µM; in experiment [5] it was 128 µM (≈ 57.5 µg/mL). Besides, the minimum inhibitory concentration (MIC) with Vibrio cholerae is 128 µM (≈ 57.5 µg/mL); in the experiment on Pseudomonas aeruginosa, greater than 128 µM; against Escherichia coli, 128 µM (≈ 57.5 µg/mL); in [6], 128 µM (≈ 57.5 µg/mL); against Klebsiella aerogenes it was greater than 128 µM; against Shigella sonnei it was 128 µM (≈ 57.5 µg/mL). The same compound had an MIC in the experiment on Staphylococcus aureus [7] of 128 µM (≈ 57.5 µg/mL).

On to `CO[C@H]1/C=C/O[C@@]2(C)Oc3c(C)c(O)c4c(O)c(c(/C=N/N5CCN(C)CC5)c(O)c4c3C2=O)NC(=O)/C(C)=C\C=C\[C@H](C)[C@H](O)[C@@H](C)[C@@H](O)[C@@H](C)[C@H](OC(C)=O)[C@@H]1C` [RIFAMPIN], for which the MIC in the experiment on Brucella anthropi worked out at 4 µM (≈ 3.29 µg/mL); with Bacillus subtilis it was 0.19 µM (≈ 0.156 µg/mL); with Staphylococcus aureus [1], 2 µM (≈ 1.65 µg/mL); against Enterococcus faecalis, 1 µM (≈ 0.823 µg/mL); with Salmonella enterica, 2 µM (≈ 1.65 µg/mL); with Enterococcus faecium, 21.3 µM (≈ 17.5 µg/mL). Also, the MIC in the experiment with Listeria ivanovii was 0.02 µM (≈ 0.0165 µg/mL); against Klebsiella pneumoniae, 16 µM (≈ 13.2 µg/mL); in experiment [2] it was 0.062 µM (≈ 0.051 µg/mL); in experiment [3] it was 0.02 µM (≈ 0.0165 µg/mL); in experiment [5] it was 10.7 µM (≈ 8.81 µg/mL); against Vibrio cholerae, greater than 128 µM. In addition, the MIC was 53.3 µM (≈ 43.9 µg/mL) against Pseudomonas aeruginosa; 4 µM (≈ 3.29 µg/mL) in the experiment on Escherichia coli; 8 µM (≈ 6.58 µg/mL) in experiment [6]; 8 µM (≈ 6.58 µg/mL) in the experiment with Klebsiella aerogenes; 1.67 µM (≈ 1.37 µg/mL) in the experiment on Shigella sonnei; 0.01 µM (≈ 0.00823 µg/mL) in the experiment on Staphylococcus aureus [7].

`CCCCCCCCCC(=O)NC(C)(C)C(=O)N1CCC[C@H]1C(=O)N[C@@H](Cc1ccccc1)C(=O)NC(C)(C)C(=O)N[C@@H](CCC(N)=O)C(=O)N[C@@H](CCC(N)=O)C(=O)NC(C)(C)C(=O)NC(C)(C)C(=O)N[C@@H](CCC(N)=O)C(=O)N[C@@H](CC(C)C)C(=O)N[C@H](CO)C(C)C` (Decanoyl-[Aib]PF[Aib]QQ[Aib][Aib]QL-Valol): the MIC against Brucella anthropi is greater than 128 µM; in the experiment with Bacillus subtilis, 8 µM (≈ 10.7 µg/mL); in the experiment on Staphylococcus aureus [1], 16 µM (≈ 21.4 µg/mL); in the experiment on Enterococcus faecalis, 32 µM (≈ 42.9 µg/mL); against Salmonella enterica, greater than 128 µM; against Enterococcus faecium, 32 µM (≈ 42.9 µg/mL). In addition, the MIC is 8 µM (≈ 10.7 µg/mL) in the experiment on Listeria ivanovii; greater than 128 µM with Klebsiella pneumoniae; 20 µM (≈ 26.8 µg/mL) in [2]; greater than 128 µM in [3]; 80 µM (≈ 107 µg/mL) in experiment [4]; greater than 128 µM in [5]. For the same compound, the MIC (with Vibrio cholerae; against Pseudomonas aeruginosa; with Escherichia coli; in [6]; against Klebsiella aerogenes; in the experiment on Shigella sonnei) was greater than 128 µM in each case. In addition, in the experiment on Staphylococcus aureus [7], the MIC worked out at 8 µM (≈ 10.7 µg/mL).

Take `O=C(O)c1cn(C2CC2)c2cc(N3CCNCC3)c(F)cc2c1=O` [CIPROFLOXACIN]: the MIC against Brucella anthropi worked out at 0.83 µM (≈ 0.275 µg/mL); in the experiment on Bacillus subtilis, 0.38 µM (≈ 0.126 µg/mL); against Staphylococcus aureus [1], 64 µM (≈ 21.2 µg/mL); with Enterococcus faecalis, 1 µM (≈ 0.331 µg/mL); against Salmonella enterica it was 0.05 µM (≈ 0.0166 µg/mL); against Enterococcus faecium, 0.67 µM (≈ 0.222 µg/mL). The MIC was determined as 8 µM (≈ 2.65 µg/mL) with Listeria ivanovii; 2 µM (≈ 0.663 µg/mL) in the experiment on Klebsiella pneumoniae; 1.33 µM (≈ 0.441 µg/mL) in [3]; 3.8 µM (≈ 1.26 µg/mL) in [4]; 0.14 µM (≈ 0.0464 µg/mL) in experiment [5]; 0.02 µM (≈ 0.00663 µg/mL) with Vibrio cholerae. Besides, the MIC in the experiment with Pseudomonas aeruginosa stood at 0.5 µM (≈ 0.166 µg/mL); against Escherichia coli, 0.17 µM (≈ 0.0563 µg/mL); in experiment [6] it was 0.13 µM (≈ 0.0431 µg/mL); with Klebsiella aerogenes, 2.83 µM (≈ 0.938 µg/mL); in the experiment with Shigella sonnei, 0.08 µM (≈ 0.0265 µg/mL).
